# Source: patent US9125879B2, “Composition containing a quinoa extract for dermatological use” (LABORATOIRES EXPANSCIENCE, priority 2006, dated 2015)
# B1: IL1α: IL1α (Sigma) at 100 ng/mL used as a positive control (protein, UniProt P01583 113-271, looked up)
# Interleukin-1 alpha: SAPFSFLSNVKYNFMRIIKYEFILNDALNQSIIRANDQYLTAAALHNLDEAVKFDMGAYKSSKDDAKITVILRISKTQLYVTAQDEDQPVLLKEMPEIPKTITGSETNLLFFWETHGTKNYFTSVAHPNLFIATKQDYWVCLAGGPPSITDFQILENQA
# What was measured:
# Format in all cases: cell-based
# keratinocytes = experiment: Proliferation of keratinocytes by the MTT method
# Method: c. Study of the Proliferation of Keratinocytes by the MTT Method
# On D0, the keratinocytes are sown in a KGM2 medium day1, the cells are treated with trans-retinoic acid (ATRA) at 1 μM or quinoa peptides with 0.05% and 0.1% DM for 24 and 48 hours. At the end of the treatment, cell viability is quantified by an MTT test: after 3 hours of contact with MTT, the formed formazan crystals are solubilized by DMSO and the optical density, proportional to the amount of metabolically active cells therefore live cells, is read at 570 nm against the blank (wells without any cells).
# γ-2 chain of laminin 5 = experiment: Genic expression of the γ-2 chain of laminin 5 in keratinocytes (RT-PCR); conditions: 5 ng/ml, 48 hours
# Method: (§1) a. Study of the Effect of Quinoa Peptides on the Expression of Genes Coding for Laminin 5 and PPM-9 by RT-PCR • Principle of real time quantitative PCR: cf. Example 4 • Procedure:
# (§2) On day 0, the keratinocytes were sown in 24-well plates in a KGM-2 medium. On D1, the cells were treated with TGFβ1 at 5 ng/mL or quinoa peptides with 0.05 and 0.1% DM for 48 hours. At the end of the treatment of the cells, the total RNAs were extracted (RNeasy MiniKit extraction kit; Qiagen) and then quantitatively assayed in minichips by means of the Experion system (Experion RNA StdSens kit; Biorad). The total RNAs were then backtranscribed into cDNA (iScript cDNA Synthesis kit; Biorad). Finally, the neo-synthesized cDNAs relative to the gene of interest (genes coding for the 3 chains making up laminin 5: […] and MMP-9) or to the reference genes (HPRT, GAPDH, YWHEZ, beta actin=normalizers) were selectively amplified by real time PCR (iQ5, Biorad) by using specific primers of the target sequences.
# collagen I = experiment: Genic expression of collagen I in fibroblasts (real time quantitative PCR); conditions: 5 ng/mL, 48 hours
# Description: (§3) b. Study of the Effect of Quinoa Peptides on the Expression of Genes Coding for Collagen I and Collagen III and Elastin by RT-PCR
# (§4) b.1. Principle of Real Time Quantitative PCR:
# (§5) Real time quantitative PCR or QRT-PCR (Quantitative Real Time Polymerase Chain Reaction) is a molecular biology method, which allows specific and quantitative measurement of the expression of genes of interest by amplification. Quantification is based on tracking the amplification of genes in real time by using as a reporter system, SYBR Green technology: a molecule with fluorescent properties which is inserted inside the double strand DNA. PCR takes place in a succession of temperature cycles according to 3 steps: • Denaturation: separation of 2 DNA strands. • Hybridization: recognition of a DNA sequence corresponding to a target gene by means of specific primers. • Extension: of the sequence of interest by a action of a polymerase.
# (§6) DNA amounts are compared in the exponential part, moment during which the increase in the DNA amount is proportional to the initial matrix amount.
# (§7) On D0, the fibroblasts were sown on 6-well plates in RPMI medium added with 10% SVF. On D1, the fibroblasts were treated with TGF β1 at 5 ng/mL or the quinoa oil concentrate with 0.005% and 0.01% DM in RPMI medium with 1% SVF for 48 hours. At the end of the treatment of the cells, the total […] were extracted (extraction kit RNeasy kit MiniKit; Qiagen) and then assayed quantitatively in minichips by means of an Experion system (Experion RNA StdSens kit; Biorad). Total RNAs are then back-transcribed into cDNA (iScript cDNA Synthesis kit; Biorad). Finally the neo-synthesized cDNAs relative to the genes of interest (collagen I, collagen III, elastin) or to reference genes (HPRT, GAPDH, YWHAZ, beta actin=normalizers) were selectively amplified with real time PCR (iQ5, Biorad) by using specific primers of the target sequences.
# (§8) The expression of the reference genes is analyzed in the same samples as those for which expression of the genes of interest is evaluated in order to normalize the results and to make sure that they are actually the results of the effect of the treatment by quinoa oil concentrate.
# (§9) b.3. Analysis of the Results:
# (§10) The variation in the number of copies of the genes of interest during the treatment is then calculated according to the following formula: DDCt=control DCt−treatment DCt.
# (§11) Finally, the relative amount or the expression level of the genes of interest, normalized by the expression level of the reference genes in the untreated and treated samples is obtained by the formula: QR=2DDCt
# MMP-9 [1] = experiment: Dosage of MMP-9 protein secreted by keratinocytes (ELISA); conditions: 5 ng/ml, supernatants of keratinocytes
# Method: d. Dosage of MMP-9 Secreted by Keratinocytes.
# The keratinocytes were sown in 24-well plates; after 24 hours in incubation at 37° C., with 5% CO2, the cells were treated with quinoa peptides with 0.05% and 0.01% DM. TGFβ tested at 5 ng/mL was used as a positive control. After 48 and 72 hours of treatment, the amount of MMP-9 secreted by the cells was assayed in the culture supernatant by means of an ELISA kit (R&D Systems), according to the procedure recommended by the supplier. In parallel, the amount of living cells per well was determined by a colorimetric neutral red test: optical density OD, proportional to the amount of living cells, is read at 570 nm.
# The amount of MMP-9 is expressed in living cells: (ng/mL)/OD570 (optical density at 570 nm) MTT.
# α-3 chain of laminin 5 = experiment: Genic expression of the α-3 chain of laminin 5 in keratinocytes (RT-PCR); conditions: 5 ng/ml, 48 hours
# Method: as §1, §2
# elastin = experiment: Genic expression of elastin in fibroblasts (real time quantitative PCR); conditions: 5 ng/mL, 48 hours
# Description: as §3, §4, §5, §6, §7, §8, §9, §10, §11
# collagen III = experiment: Genic expression of collagen III in fibroblasts (real time quantitative PCR); conditions: 5 ng/mL, 48 hours
# Description: as §3, §4, §5, §6, §7, §8, §9, §10, §11
# β-3 chain of laminin 5 = experiment: Genic expression of the β-3 chain of laminin 5 in keratinocytes (RT-PCR); conditions: 5 ng/ml, 48 hours
# Method: as §1, §2
# KGF = experiment: Dosage of KGF secreted by fibroblasts (ELISA); conditions: for % A (increase) / Amount of KGF: 5 ng/ml, supernatants of fibroblasts
# Method: e. Dosage of KGF Secreted by Fibroblasts
# The fibroblasts were sown in a 24-well plate in RPMI at 1% SVF; after 24 hours of incubation at 37° C., with […], the cells were treated with quinoa peptides with 0.05% and 0.01% DM. IL1α (Sigma) at 100 ng/mL was used as a positive control. After 24 and 48 hours of treatment, the amount of KGF salted out by the fibroblasts was assayed with an ELISA kit (R&D Systems), according to the procedure recommended by the supplier. In parallel, the amount of living cells per well was determined by a colorimetric neutral red test: optical density OD, proportional to the amount of living cells, is read at 570 nm. In parallel, the amount of living cells per well was determined by an MTT colorimetric test: optical density OD, proportional to the amount of living cells, is read at 570 nm.
# The amount of KGF is expressed by the living cells: pg/mL/OD570 MTT.
# MMP-9 [2] = experiment: Genic expression of MMP-9 in keratinocytes (RT-PCR); conditions: 5 ng/ml, 48 hours
# Method: as §1, §2
molecule,measurement,setting,value
"CC1=C(/C=C/C(C)=C/C=C/C(C)=C/C(=O)O)C(C)(C)CCC1 [ATRA, trans-retinoic acid]",Mean OD570 (MTT),keratinocytes; 1 μM,1.361
same,% of proliferation,"keratinocytes; 1 μM, negative control = 100",136%
same,proliferation rate induced,keratinocytes; positive control,+36%
TGFβ: growth factor used as a positive control at 5 ng/mL,% of induction,γ-2 chain of laminin 5,1676%
same,Mean dCt,γ-2 chain of laminin 5,−1.925
same,QR,γ-2 chain of laminin 5,17.76
same,ddCt,γ-2 chain of laminin 5,4.15
same,QR,γ-2 chain of laminin 5; listed as TGF-β1,~17
same,% of induction,collagen I,87%
same,Mean dCt,collagen I,−3.2
same,QR,collagen I,1.87
same,ddCt,collagen I,0.9
same,% A (increase),MMP-9 [1]; treatment 48 h,372%
same,Amount of MMP-9,MMP-9 [1]; treatment 48 h,11.604 ng/mL/OD neutral red
same,% A (increase),MMP-9 [1]; treatment 72 h,568%
same,Amount of MMP-9,MMP-9 [1]; treatment 72 h,14.746 ng/mL/OD neutral red
same,% of induction,α-3 chain of laminin 5,1193%
same,Mean dCt,α-3 chain of laminin 5,−0.944
same,QR,α-3 chain of laminin 5,12.93
same,ddCt,α-3 chain of laminin 5,3.69
same,QR,α-3 chain of laminin 5; listed as TGF-β1,~12
same,% of induction,elastin,435%
same,QR,elastin,5.35
same,dCt,elastin,2.16
same,ddCt,elastin,2.4
same,% of induction,collagen III,427%
same,Mean dCt,collagen III,2.51
same,QR,collagen III,5.27
same,ddCt,collagen III,2.4
same,% of induction,β-3 chain of laminin 5,420%
same,Mean dCt,β-3 chain of laminin 5,−0.944
same,QR,β-3 chain of laminin 5,5.20
same,ddCt,β-3 chain of laminin 5,2.38
same,QR,β-3 chain of laminin 5; listed as TGF-β1,~5
same,% A (increase),KGF; treatment 24 h,431%
same,Amount of KGF,KGF; treatment 24 h,147.886 pg/mL/OD neutral red
same,% A (increase),KGF; treatment 48 h,336%
same,Amount of KGF,KGF; treatment 48 h,352.387 pg/mL/OD neutral red
same,% of induction,MMP-9 [2],807%
same,Mean dCt,MMP-9 [2],3.07
same,QR,MMP-9 [2],8
same,ddCt,MMP-9 [2],3.01
B1,synthesis of KGF by fibroblasts,"KGF; positive control, 100 ng/mL",increased
